Here are results for 5 compounds from patent US5942503A, “Use of Epinastine for the treatment of pain” (Boehringer Indelheim KG, priority 1995, dated 1999).

Where “and” joins values, the source holds several entries; their conditions need not be identical. Equal entries are not always repeated. Structures can show the parent of a compound that is named as a salt. Where two headings read alike, the source gives them in different places.

The subject of one test is Male Wistar rats. The method, then: Male Wistar rats weighing 175-190 g were anaesthetised with nembutal 50 mg/kg i.p. and the jugular vein was cannulated for injection of drugs. The animals were placed in a stereotaxic frame. Symmetrical boreholes were drilled 3.0 mm laterally and 3.2 mm posteriorly from bregma and the electrodes were lowered 9.5 mm from dura mater. The test compound epinastine or control solution were administered intravenously 10 min prior to electrical stimulation of the right trigeminal ganglion (5 min; 2.0 mA, 5 Hz, 5 ms duration and Evans blue (30 mg/kg i.v.), was given 5 min prior to electrical stimulation as a marker of plasma protein extravasation. 15 minutes after the end of the stimulation period the animals were perfused with 50 ml saline via the left cardiac ventricle to remove intravascular Evans blue. The dura mater was removed, blotted dry and weighed. Tissue Evans blue was extracted in 0.3 ml formamide at 50° C. for 24 h. Dye concentrations were measured with a spectrophotometer at 620 nm wavelength, interpolated on a standard curve and expressed as ng Evans blue content per mg tissue weight.
Extravasation was expressed as the quotient calculated by dividing the Evan's blue content of the stimulated side by the Evan's blue content of the unstimulated side. Results are expressed as means.

Another test concerns the target T1, rat 5HT7 receptor (Rattus norvegicus, UniProt P32305).
T1 construct: expressed in transfected cells; host or cells: CHO cells
Briefly: Binding of [3H] LSD to rat 5HT7 receptor expressed in CHO cells. The method, then:
Binding of 2.0 nM [^3 H] LSD to a rat 5HT7 receptor expressed in CHO cells was measured for 60 minutes at 37° C. in 50 mM Tris-HCl buffer, pH 7.4, containing 10 mM MgCl2 and 0.5 mM EDTA. The reaction was terminated by rapid vacuum filtration onto glass fiber filters pretreated with 0.1% polyethyleneimine. Binding studies were made in duplicate in the absence of the drug and in the presence of between 6 and 8 concentrations of epinastine between 3 nM and 10 μM. Radioactivity trapped on the filters in the presence of each drug concentration was measured and compared with control values in order to ascertain interaction of the drug with the cloned 5-HT7 receptor site. Non-specific binding was determined in the presence of 5-carboxamidotryptamine (5-CT). The IC50 for the displacement of radiolabelled ligand was determined by graphical extrapolation and Ki values were calculated after correction for the radioligand occupancy shift by the Cheng and Prusoff equation (see Biochem. Pharmacol. 22, (1973): 3099-3108). Three experiments were carried out.

Test [1] concerns rats of the strain Chbb:THOM. The test can be described thus: animal or person. Particulars: for Mean value of pain threshold: 3 hours after yeast. The method, then:
The method of Randall and Selitto was modified through use of the Analgesia meter by Basile of Milan.
Groups of 10 fasted rats of the strain Chbb:THOM (weight 110-140 g, 5 male 5 female) were dosed orally with it Natrosol 250 HX, 1 ml/100 g body weight, containing 0, 0.3, 1.0, 3.0 or 10 mg/kg epinastine (racemic mixture). 1 hour later the rats were injected subplantar with a suspension of yeast cells in a volume 0.1 ml into the right hind paw. 3 hours after injection of the yeast suspension, the pain threshold was determined by increasing the pressure on the inflamed paw until a sign of pain was produced. From the pain threshold measured after the different doses of the epinastine, linear regression analysis was used to determine an ED50.

The mark [2] stands for this setting: individual values of the three experiments, read-out: Measured Ki values.
The mark [3] stands for this setting: mean of three experiments, 2.0 nM [3H] LSD, 60 minutes at 37° C., read-out: mean Ki value.

T1 sequence (P32305 whole entry): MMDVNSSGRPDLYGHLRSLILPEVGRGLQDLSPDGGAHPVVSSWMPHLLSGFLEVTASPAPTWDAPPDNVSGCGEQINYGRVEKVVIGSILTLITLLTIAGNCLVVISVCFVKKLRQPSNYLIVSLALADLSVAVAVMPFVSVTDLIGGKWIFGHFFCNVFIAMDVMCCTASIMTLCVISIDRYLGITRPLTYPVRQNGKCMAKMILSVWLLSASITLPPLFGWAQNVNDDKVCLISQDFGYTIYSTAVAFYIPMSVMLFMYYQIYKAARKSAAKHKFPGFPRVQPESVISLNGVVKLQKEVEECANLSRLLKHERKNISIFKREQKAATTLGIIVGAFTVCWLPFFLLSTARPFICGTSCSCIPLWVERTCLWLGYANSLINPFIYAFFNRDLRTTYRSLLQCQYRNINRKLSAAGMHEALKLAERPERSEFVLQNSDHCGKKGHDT

One may read the Ki as a dissociation constant, usually derived from enzyme kinetics or from competition with a known ligand. The term ED50 denotes the midpoint of the dose-response relation. Consider `NC1=NCC2c3ccccc3Cc3ccccc3N12` (racemic) [Epinastine, 3-amino-9,13b-dihydro-1H-dibenz[c,f]-imidazo[5,1-a]azepine hydrochloride], for which, in the test with Male Wistar rats (epinastine 10 μg/kg i.v., mean of 7 animals (control mean 1.25)), the “Quotient stimulated/non-stimulated side, mean” value was 0.98. Moreover, the “Evans blue extravasation induced by electrical stimulation of the trigeminal ganglion” value with Male Wistar rats (result in words) was “significantly reduced”. In addition, the Ki was 27 nM and 41 nM and 30 nM on rat 5HT7 receptor (Measured Ki values, individual values of the three experiments); 33 nM at rat 5HT7 receptor (mean Ki value, mean of three experiments, 2.0 nM [3H] LSD, 60 minutes at 37° C.). For the same compound, the “% Increase of pain threshold” value in test [1] (0.3 mg/kg p.o.) worked out at 9.6%; in test [1] (1.0 mg/kg p.o.), 56.4%; in test [1] (3.0 mg/kg p.o.), 72.5%; in test [1] (10.0 mg/kg p.o.) it was 81.4%. Besides, the “Mean value of pain threshold” value in test [1] (0.3 mg/kg p.o.) is listed as 164.8 g/hind paw; in test [1] (1.0 mg/kg p.o.), 235.2 g/hind paw; in test [1] (3.0 mg/kg p.o.), 259.4 g/hind paw; in test [1] (10.0 mg/kg p.o.), 272.8 g/hind paw. Moreover, in test [1] (Rattus norvegicus, po, read-out: ED50, dose required to increase the pain threshold by 50%), the ED50 amounted to 1.1 mg/kg. Further, the “pain threshold in inflamed rat paw” value in test [1] (result in words) is reported as “increased the pain threshold”.
In the case of `COc1ccc(CN(CCN(C)C)c2ccccn2)cc1` [Mepyramine], the Ki at rat 5HT7 receptor (setting [2]) was 2660 nM and 747 nM and 1330 nM.
Turning to `NC1=NCC2c3ccccc3Cc3ccccc3N12` (single isomer, unassigned; (-)) [Epinastine (-) Enantiomer, (-)-3-Amino-9,13b-dihydro-1H-dibenz-[c,f]-imidazo[1,5a]-azepine-hydrochloride], the Ki at rat 5HT7 receptor (setting [2]) is 155 nM and 204 nM and 207 nM; at rat 5HT7 receptor (setting [3]), 189 nM.
On to `CN1CCC(=C2c3ccccc3CC(=O)c3sccc32)CC1` [Ketotifen], for which the Ki at rat 5HT7 receptor (setting [2]) is 406 nM and 572 nM and 331 nM.
For the compound `NC1=NCC2c3ccccc3Cc3ccccc3N12` (single isomer, unassigned; (+)) [Epinastine (+) Enantiomer, (+)-3-Amino-9,13b-dihydro-1H-dibenz-[c,f]-imidazo[1,5a]-azepine-hydrochloride], the Ki on rat 5HT7 receptor (setting [2]) is 45 nM and 18 nM and 22 nM; on rat 5HT7 receptor (setting [3]), 28 nM.
